Common to all, as to type: in vivo
Test [1] relates to Uromyces phaseoli tipica. Description: Leaf Rust / Bean Rust control (Example F). The settings on record: 336 h, pinto bean plants, rated after about 14 days, relative to untreated check plants, read-out: % Control BR. As to the method:
The Leaf Rust test was made using pinto beans. The pathogen was Uromyces phaseoli tipica. The pinto bean plants were sprayed with a 250-ppm solution of the test compound in an acetone-water mixture containing a nonionic emulsifier. The treated plants were inoculated thereafter with the pathogen and then incubated in an environmental chamber for approximately 20 hours at 100% relative humidity and a temperature of 68° F. to 70° F. The plants were then removed from the chamber, allowed to dry, and then maintained in a greenhouse at a 60% to 80% relative humidity. The rate of infection on the leaves was made after about 14 days. The percent disease control provided by a given test compound was based on the percent disease reduction relative to untreated check plants.

The test system of test [2] is Plasmopara viticola. In words: Grape Downy Mildew control (Example E). The settings on record: detached grape leaves, cultivar Emperor, relative to untreated check plants, read-out: % Control GDM. How it is done:
The compounds of the invention were tested for the control of the Grape Downy Mildew organism Plasmopara viticola. Detached leaves, between 70 mm and 85 mm in diameter, 7-week-old Vitis vinifera cultivar Emperor grape seedlings were used as hosts. The leaves were sprayed with a 250-ppm solution of the test compound in acetone. The sprayed leaves were dried, inoculated with a spore suspension of the organism, placed in a humid environmental chamber and incubated at 66° F. to 68° F. and about 100% relative humidity. After incubation for 2 days, the plants were then held in a greenhouse 7 to 9 days; then the amount of disease control was determined. The percent disease control provided by a given test compound was based on the percent disease reduction relative to untreated check plants.

The subject of test [3] is Piricularia oryzae. Description: whole plant or invertebrate. The settings on record: Pyricularia oryzae, read-out: % Control RB.
For test [4], the system named is Erysiphe polygoni. In words: Bean Powdery Mildew control (Example A). As to conditions: 240 h, seedling bean plants, inoculated 1 day after spray, 10 days, relative to untreated check plants, read-out: % Control BPM. As to the method:
The compounds of the invention were tested for the control of the Bean Powdery Mildew organism Erysiphe polygoni. Seedling bean plants were sprayed with a 250-ppm solution of the test compound in acetone, water and a nonionic emusifier. The sprayed plants were then inoculated 1 day later with the organism. The plants were maintained for 10 days at temperatures of 68° F. at night with daytime temperatures of 72° F. to 80° F.; relative humidity was maintained at 40% to 60%. The percent disease control provided by a given test compound was based on the percent disease reduction relative to the untreated check plants.

For test [5], the system named is Phytophthora infestans. Description: whole plant or invertebrate. As to conditions: in Solanum lycopersicum, 168 h, read-out: % Control TLB.
Test [6] deals with Alternaria solani conidia. Description: Tomato Early Blight control (Example D). The settings on record: 288 h, tomato seedlings, Bonny Best, inoculated 1 day after spray, relative to untreated check plants, read-out: % Control TEB. How it is done:
Compounds of the invention were tested for the control of the Tomato Early Blight organism Alternaria solani conidia. Tomato (variety Bonny Best) seedlings of 6- to 7-weeks old were used. The tomato plants were sprayed with a 250-ppm solution of the test compound in an acetone-and-water solution containing a small amount of a nonionic emulsifier. The sprayed plants were inoculated 1 day later with the organism, placed in the environmental chamber and incubated at 66° F. to 68° F. and 100% relative humidity for 24 hours. Following the incubation, the plants were maintained in a greenhouse for about 12 days. Percent disease control was based on the percent disease development on untreated check plants.

Test [7] deals with Septoria apii. Description: whole plant or invertebrate. The settings on record: 336 h, read-out: % Control CLB.

Regarding `CCCN(CCOc1c(Cl)cc(Cl)cc1Cl)C(=O)c1cccnc1` [Compound 1, N-(n-propyl), N-(3-pyridylcarbonyl)ethanolamine 2,4,6-trichlorophenylether], the pest or weed control at 250 ppm was 0% in test [1]; 50% in test [2]; 100% in test [4]; 0% in test [5]; 96% in test [6]; 46% in test [7]. In addition, the pest or weed control at 625 ppm in test [3] stood at 86%.

On to `CCCN(CCOc1c(Cl)cc(Cl)cc1Cl)C(=O)c1cncnc1` [Compound 2, N-(n-propyl), N-(5-pyrimidylcarbonyl)ethanolamine 2,4,6-trichlorophenylether], for which the pest or weed control at 250 ppm in test [1] came to 0%; in test [2], 3%; in test [4] it was 100%; in test [5], 0%; in test [6], 98%; in test [7], 93%. For the same compound, the pest or weed control at 625 ppm in test [3] is 38%.

As for `CCCN(CCOc1c(Cl)cc(Cl)cc1Cl)C(=O)c1cnccn1` [Compound 3, N-(n-propyl), N-(2-pyrazinylcarbonyl)ethanolamine 2,4,6-trichlorophenylether], the pest or weed control at 250 ppm came to 19% in test [1]; 13% in test [2]; 100% in test [4]; 0% in test [5]; 94% in test [6]; 62% in test [7]. The pest or weed control at 625 ppm in test [3] was found to be 75%.

Consider `CCCN(CCOc1ccc(C(C)(C)C)cc1)C(=O)c1cnccn1` [Compound 5], for which the pest or weed control at 250 ppm in test [1] was determined as 0%; in test [2], 28%; in test [4], 94%; in test [5], 0%; in test [6], 36%; in test [7], 17%.

Turning to `CCCN(CCOc1ccc(C(C)(C)C)cc1)C(=O)c1cccnc1` [Compound 6], the pest or weed control at 250 ppm amounted to 0% in test [1]; 0% in test [2]; 98% in test [4]; 10% in test [5]; 50% in test [6]; 0% in test [7].

As for `CCCN(CCOc1ccc(Cl)cc1Cl)C(=O)c1cnccn1` [Compound 7], the pest or weed control at 250 ppm in test [1] came to 3%; in test [2], 13%; in test [4], 21%; in test [5], 0%; in test [6], 0%; in test [7], 15%. The pest or weed control at 625 ppm in test [3] is 0%.

Take `CCCN(CCOc1ccc(Cl)cc1Cl)C(=O)c1cccnc1` [Compound 8]: the pest or weed control at 250 ppm in test [1] stood at 3%; in test [2] it was 0%; in test [4] it was 50%; in test [5], 0%; in test [6], 40%; in test [7], 45%. Moreover, the pest or weed control at 625 ppm in test [3] amounted to 0%.

For `CCCN(CCOc1c(Cl)cc(Cl)cc1Cl)C(=O)c1ccccn1` [Compound 9], the pest or weed control at 250 ppm came out at 50% in test [1]; 19% in test [2]; 0% in test [4]; 0% in test [5]; 0% in test [6]; 9% in test [7]. In addition, the pest or weed control at 625 ppm in test [3] was found to be 10%.

Turning to `CCCN(CCOc1c(Cl)cc(Cl)cc1Cl)C(=O)c1ccncc1` [Compound 10], the pest or weed control at 250 ppm in test [1] stood at 29%; in test [2] it was 9%; in test [4], 0%; in test [5], 11%; in test [6], 32%; in test [7], 0%. In addition, the pest or weed control at 625 ppm in test [3] came to 0%.

`CCCN(CCSc1c(Cl)cccc1Cl)C(=O)c1cccnc1` [Compound 11, N-(n-propyl), N-(3-pyridylcarbonyl) 2-aminoethanethiol 2,6-dichlorophenylthioether]: the pest or weed control at 250 ppm in test [1] was found to be 0%; in test [2] it was 13%; in test [4], 58%; in test [5], 0%; in test [6], 60%; in test [7] it was 0%. In test [3], the pest or weed control at 625 ppm was found to be 29%.

As for `CCCN(CCOc1c(Cl)cc(Cl)cc1Cl)C(=O)c1cncn1C` [Compound 12, N-(n-propyl), N-(1-methyl-5-imidazolylcarbonyl)ethanolamine 2,4,6-trichlorophenylether], the pest or weed control at 250 ppm in test [1] is 29%; in test [2], 19%; in test [4] it was 100%; in test [5], 18%; in test [6] it was 36%; in test [7] it was 45%. The pest or weed control at 625 ppm in test [3] was found to be 0%.

For `CCCN(CCOc1c(Cl)cccc1Cl)C(=O)c1cncnc1` [Compound 13], the pest or weed control at 250 ppm in test [1] was determined as 0%; in test [2], 10%; in test [4], 81%; in test [5], 4%; in test [6] it was 97%; in test [7] it was 80%.

Take `CCCN(CCOc1c(C)cc(C)cc1C)C(=O)c1cccnc1` [Compound 14]: the pest or weed control at 250 ppm amounted to 0% in test [1]; 0% in test [2]; 100% in test [4]; 0% in test [5]; 67% in test [6]; 85% in test [7]. In addition, the pest or weed control at 625 ppm in test [3] was determined as 64%.

As for `CCCN(CCOc1c(Cl)cc(Cl)cc1Cl)C(=S)c1cnccn1` [Compound 18], the pest or weed control at 250 ppm in test [1] turned out to be 0%; in test [2], 43%; in test [4] it was 54%; in test [5], 0%; in test [7], 85%.

Consider `CCCN(C(=O)c1cccnc1)C(C)COc1c(Cl)cc(Cl)cc1Cl` (stereo not drawn) [Compound 20, N-(n-propyl), N-(3-pyridylcarbonyl)propanol-2-amine 2,4,6-trichlorophenylether], for which the pest or weed control at 250 ppm was 23% in test [1]; 7% in test [2]; 93% in test [4]; 0% in test [5]; 0% in test [7]. Further, the pest or weed control at 625 ppm in test [3] was 0%.

In the case of `CCCN(C(=O)c1cnccn1)C(C)COc1c(Cl)cc(Cl)cc1Cl` (stereo not drawn) [Compound 21, N-(n-propyl), N-(2-pyrazinylcarbonyl)propanol-2-amine 2,4,6-trichlorophenylether], the pest or weed control at 250 ppm in test [1] came to 23%; in test [2], 67%; in test [4] it was 71%; in test [5] it was 0%; in test [7] it was 0%. The pest or weed control at 625 ppm in test [3] stood at 0%.

Turning to `CCCN(Cc1c(Cl)cccc1Cl)C(=O)c1cccnc1` [Compound 29], the pest or weed control at 250 ppm in test [1] amounted to 0%; in test [2], 27%; in test [4], 48%; in test [5], 0%; in test [6], 50%; in test [7], 0%.

(Values after patent US4782074A (priority 1987, dated 1988).)
